# Data reported in the supplement of paper PMC8612539.
# Tested on: Escherichia coli
# Test: minimum inhibitory concentration (MIC)
# Method: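 Broth microdilution MIC (Sensititre BOPO7F bovine plate, CLSI methods) of 19 antimicrobials against field isolates of P. multocida, M. haemolytica, H. somni (deep nasopharyngeal swabs) and E. coli, Enterococcus spp. (rectal swabs) from weaned dairy heifers. Incubation 16-24 h at 35 C. MIC is the lowest concentration preventing visible growth. Values with <= or > lie at the tested range limits. Trimethoprim-sulfamethoxazole is given as the trimethoprim component of a 1:19 mixture.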
smiles,measurement,setting,value
CC[C@H]1OC(=O)C[C@@H](O)[C@H](C)[C@@H](O[C@@H]2O[C@H](C)[C@@H](O)[C@H](N(C)C)[C@H]2O)[C@@H](CCN2CCCCC2)C[C@@H](C)C(=O)/C=C/C(C)=C/[C@@H]1CN1CCCCC1 [Tildipirosin],minimum inhibitory concentration,isolate (source animal id): 8,4 µg/mL
same,minimum inhibitory concentration,isolate (source animal id): 9,16 µg/mL
same,minimum inhibitory concentration,isolate (source animal id): 10,8 µg/mL
same,minimum inhibitory concentration,isolate (source animal id): 11,4 µg/mL
same,minimum inhibitory concentration,isolate (source animal id): 12,4 µg/mL
same,minimum inhibitory concentration,isolate (source animal id): 13,4 µg/mL
same,minimum inhibitory concentration,isolate (source animal id): 14,4 µg/mL
same,minimum inhibitory concentration,isolate (source animal id): 15,4 µg/mL
same,minimum inhibitory concentration,isolate (source animal id): 16,4 µg/mL
same,minimum inhibitory concentration,isolate (source animal id): 98,4 µg/mL
same,minimum inhibitory concentration,isolate (source animal id): 99,4 µg/mL
same,minimum inhibitory concentration,isolate (source animal id): 100,2 µg/mL
same,minimum inhibitory concentration,isolate (source animal id): 101,4 µg/mL
same,minimum inhibitory concentration,isolate (source animal id): 102,4 µg/mL
same,minimum inhibitory concentration,isolate (source animal id): 103,4 µg/mL
same,minimum inhibitory concentration,isolate (source animal id): 104,4 µg/mL
same,minimum inhibitory concentration,isolate (source animal id): 105,4 µg/mL
same,minimum inhibitory concentration,isolate (source animal id): 106,16 µg/mL
same,minimum inhibitory concentration,isolate (source animal id): 107,8 µg/mL
same,minimum inhibitory concentration,isolate (source animal id): 108,4 µg/mL
same,minimum inhibitory concentration,isolate (source animal id): 109,4 µg/mL
same,minimum inhibitory concentration,isolate (source animal id): 110,4 µg/mL
same,minimum inhibitory concentration,isolate (source animal id): 111,4 µg/mL
same,minimum inhibitory concentration,isolate (source animal id): 112,4 µg/mL
same,minimum inhibitory concentration,isolate (source animal id): 113,4 µg/mL
same,minimum inhibitory concentration,isolate (source animal id): 114,4 µg/mL
same,minimum inhibitory concentration,isolate (source animal id): 115,8 µg/mL
same,minimum inhibitory concentration,isolate (source animal id): 116,4 µg/mL
same,minimum inhibitory concentration,isolate (source animal id): 117,> 16 µg/mL
same,minimum inhibitory concentration,isolate (source animal id): 118,8 µg/mL
same,minimum inhibitory concentration,isolate (source animal id): 119,8 µg/mL
same,minimum inhibitory concentration,isolate (source animal id): 120,4 µg/mL
same,minimum inhibitory concentration,isolate (source animal id): 121,4 µg/mL
same,minimum inhibitory concentration,isolate (source animal id): 122,4 µg/mL
same,minimum inhibitory concentration,isolate (source animal id): 123,4 µg/mL
same,minimum inhibitory concentration,isolate (source animal id): 124,2 µg/mL
same,minimum inhibitory concentration,isolate (source animal id): 125,≤ 1 µg/mL
same,minimum inhibitory concentration,isolate (source animal id): 126,4 µg/mL
same,minimum inhibitory concentration,isolate (source animal id): 127,8 µg/mL
same,minimum inhibitory concentration,isolate (source animal id): 128,4 µg/mL
same,minimum inhibitory concentration,isolate (source animal id): 129,4 µg/mL
same,minimum inhibitory concentration,isolate (source animal id): 130,4 µg/mL
same,minimum inhibitory concentration,isolate (source animal id): 131,2 µg/mL
same,minimum inhibitory concentration,isolate (source animal id): 132,4 µg/mL
same,minimum inhibitory concentration,isolate (source animal id): 133,4 µg/mL
same,minimum inhibitory concentration,isolate (source animal id): 134,4 µg/mL
same,minimum inhibitory concentration,isolate (source animal id): 135,4 µg/mL
same,minimum inhibitory concentration,isolate (source animal id): 136,4 µg/mL
same,minimum inhibitory concentration,isolate (source animal id): 137,4 µg/mL
same,minimum inhibitory concentration,isolate (source animal id): 138,4 µg/mL
same,minimum inhibitory concentration,isolate (source animal id): 139,2 µg/mL
same,minimum inhibitory concentration,isolate (source animal id): 140,4 µg/mL
same,minimum inhibitory concentration,isolate (source animal id): 141,4 µg/mL
same,minimum inhibitory concentration,isolate (source animal id): 142,4 µg/mL
same,minimum inhibitory concentration,isolate (source animal id): 143,8 µg/mL
same,minimum inhibitory concentration,isolate (source animal id): 144,4 µg/mL
same,minimum inhibitory concentration,isolate (source animal id): 145,4 µg/mL
same,minimum inhibitory concentration,isolate (source animal id): 146,8 µg/mL
same,minimum inhibitory concentration,isolate (source animal id): 147,2 µg/mL
same,minimum inhibitory concentration,isolate (source animal id): 148,4 µg/mL
same,minimum inhibitory concentration,isolate (source animal id): 149,4 µg/mL
same,minimum inhibitory concentration,isolate (source animal id): 150,4 µg/mL
same,minimum inhibitory concentration,isolate (source animal id): 151,4 µg/mL
same,minimum inhibitory concentration,isolate (source animal id): 152,4 µg/mL
same,minimum inhibitory concentration,isolate (source animal id): 153,4 µg/mL
same,minimum inhibitory concentration,isolate (source animal id): 154,4 µg/mL
same,minimum inhibitory concentration,isolate (source animal id): 155,4 µg/mL
same,minimum inhibitory concentration,isolate (source animal id): 156,4 µg/mL
same,minimum inhibitory concentration,isolate (source animal id): 157,4 µg/mL
same,minimum inhibitory concentration,isolate (source animal id): 158,4 µg/mL
same,minimum inhibitory concentration,isolate (source animal id): 159,4 µg/mL
same,minimum inhibitory concentration,isolate (source animal id): 160,4 µg/mL
same,minimum inhibitory concentration,isolate (source animal id): 161,2 µg/mL
same,minimum inhibitory concentration,isolate (source animal id): 162,4 µg/mL
same,minimum inhibitory concentration,isolate (source animal id): 163,4 µg/mL
same,minimum inhibitory concentration,isolate (source animal id): 164,4 µg/mL
same,minimum inhibitory concentration,isolate (source animal id): 165,4 µg/mL
same,minimum inhibitory concentration,isolate (source animal id): 166,4 µg/mL
same,minimum inhibitory concentration,isolate (source animal id): 167,8 µg/mL
same,minimum inhibitory concentration,isolate (source animal id): 168,4 µg/mL
same,minimum inhibitory concentration,isolate (source animal id): 169,4 µg/mL
same,minimum inhibitory concentration,isolate (source animal id): 170,4 µg/mL
same,minimum inhibitory concentration,isolate (source animal id): 171,4 µg/mL
same,minimum inhibitory concentration,isolate (source animal id): 172,4 µg/mL
same,minimum inhibitory concentration,isolate (source animal id): 173,4 µg/mL
same,minimum inhibitory concentration,isolate (source animal id): 174,4 µg/mL
same,minimum inhibitory concentration,isolate (source animal id): 175,8 µg/mL
same,minimum inhibitory concentration,isolate (source animal id): 176,8 µg/mL
same,minimum inhibitory concentration,isolate (source animal id): 177,4 µg/mL
same,minimum inhibitory concentration,isolate (source animal id): 178,4 µg/mL
same,minimum inhibitory concentration,isolate (source animal id): 179,4 µg/mL
same,minimum inhibitory concentration,isolate (source animal id): 180,4 µg/mL
same,minimum inhibitory concentration,isolate (source animal id): 181,16 µg/mL
same,minimum inhibitory concentration,isolate (source animal id): 182,8 µg/mL
same,minimum inhibitory concentration,isolate (source animal id): 183,4 µg/mL
same,minimum inhibitory concentration,isolate (source animal id): 184,8 µg/mL
same,minimum inhibitory concentration,isolate (source animal id): 185,4 µg/mL
same,minimum inhibitory concentration,isolate (source animal id): 186,4 µg/mL
same,minimum inhibitory concentration,isolate (source animal id): 187,2 µg/mL
same,minimum inhibitory concentration,isolate (source animal id): 188,4 µg/mL
